Measurements published in patent US8288381B2, “N-9 substituted purine compounds, compositions and methods of use” (Genentech, Inc., priority 2009, dated 2012).

Experiments:
[1] = target: mTOR enzyme (mTOR(1360-2549)+GBL) (Homo sapiens, UniProt P42345); experiment: In vitro mTOR kinase assay (TR-FRET); type: biochemical; settings: Ki apparent, Morrison ATP-competitive tight binding equation; 8 uM ATP, 0.25 nM mTOR+GBL; read-out: activity level (Ki) in the mTOR kinase assay
Method: The kinase activity of mTOR enzyme is assessed by incubating purified recombinant enzyme (mTOR(1360-2549)+GBL, prepared in-house) in a reaction mixture containing ATP, MnCl2, and a fluorescently labeled mTOR substrate, e.g., GFP-4E-BP1 (Invitrogen, product #PR8808A). The reaction is stopped by an addition of a Terbium-labeled phospho-specific antibody, e.g., Tb-labeled anti-p4E-BP1 T37/T46, (Invitrogen, product #PR8835A), EDTA, and TR-FRET buffer solution (Invitrogen, Product #PR3756B). Product formation is detected by way of time-resolved fluorescence resonance energy transfer (TR-FRET), which occurs when the phosphorylated substrate and labeled antibody are in close proximity due to phospho-specific binding. Enzymatic activity is measured as an increase in TR-FRET signal using a Perkin Elmer Envision plate reader. The assay is performed in a 384-well Proxiplate Plus (Perkin Elmer. Product #6008269) using the following protocol:
Compound activity is tested in 10 point dose curves starting at the highest final concentration of 10 uM. They are serially diluted in 100% DMSO prior to further dilution with assay buffer. The reaction mixture (8 uls) containing 0.25 nM mTOR+GBL enzyme, 400 nM GFP-4E-BP1, 8 uM ATP, 50 mM Hepes pH 7.5, 0.01% Tween 20, 10 mM MnCl2, 1 mM EGTA, 1 mM DTT, 1% DMSO (+/−compound) is incubated at room temperature for 30 minutes. 8 μL of solution containing 2 nM Tb-anti-p4E-BP1 antibody & 10 mM EDTA diluted TR-FRET buffer is then added and incubated for 30 minutes to stop the reaction. The plate is scanned with the Envision plate reader. Ki values are calculated in Assay Explorer using the Morrison ATP-competitive tight binding equation for Ki apparent determination.

PC3 cells = experiment: In vitro cell proliferation assay; type: cell-based; settings: Homo sapiens, PC-3; with PC3 cells
Method: Efficacy of Formula I compounds were measured by a cell proliferation assay employing the following protocol:
1. An aliquot of 20 μl of cell culture containing about 10^3 cells (PC3 or MDAMB361.1) in medium was deposited in each well of a 384-well, opaque-walled plate.
2. Control wells were prepared containing medium and without cells; Cells were allowed to settle overnight.
3. The compound was added to the experimental wells and incubated for 3 days.
4. The plates were equilibrated to room temperature for approximately 30 minutes.
5. A volume of CellTiter-Glo Reagent equal to the volume of cell culture medium present in each well was added.
6. The contents were mixed for 2 minutes on an orbital shaker to induce cell lysis.
7. The plate was incubated at room temperature for 20 minutes to stabilize the luminescence signal.
8. Luminescence was recorded and reported in graphs as RLU=relative luminescence units.
Alternatively, cells were seeded at optimal density in a 96 well plate and incubated for 4 days in the presence of test compound. Alamar Blue™ was subsequently added to the assay medium, and cells were incubated for 6 h before reading at 544 nm excitation, 590 nm emission. IC50 values were calculated using a sigmoidal dose response curve fit.

[2] = system: AKT serine-473 phosphorylation in PC-3 cells; experiment: In vitro phospho-AKT serine 473 cellular assay; type: cell-based; settings: Homo sapiens, 0.5 h; PC-3 cells stimulated with EGF, 30 minutes compound incubation; read-out: EC50 activity level (50% decrease of S473 AKT phosphorylation)
Method: The assay measures a test compound's inhibition of AKT serine-473 phosphorylation in human prostate adenocarcinoma derived PC-3 (ATCC CRL-1435) cells that have been stimulated with epidermal growth factor (EGF).
The PC-3 cell line is maintained in RPMI1640 media supplemented with 10% FBS, 2 mM Glutamine, and 10 mM HEPES pH 7.4 at 37° C. in a 5% CO2 humidified incubator.
Cells are seeded in 384-well plates at 7,000 cells/well in 50 μl growth media. After 24 hours, growth media is removed and replaced with RPMI1640 containing no FBS. Cells are treated with 10 concentrations of test compounds or DMSO alone for controls (final DMSO concentration 0.5%) and incubated at 37° C. for 30 minutes. Cells are then stimulated for 10 minutes with 100 ng/ml EGF (final concentration). One column of controls is not stimulated with EGF to observe the signal ratio between stimulated and non-stimulated cells. After 10 minutes, compounds and stimulation media are removed and replaced with 25 μl lysis buffer containing protease inhibitors and phosphatase inhibitors. This buffer contains detergent to bring about cellular disruption. […] Following the transfer of lysate to the MSD plate, AKT in the lysate is captured on the coated antibody by incubation on a shaker at 4° C. for 16 hours. Following the capture step the plate is washed and then incubated for two hours with an antibody to S473 phosphorylated AKT which is conjugated with a Sulfo-Tag. This tag gives a signal when in proximity to the electrode on the base of the MSD plate. Binding the tagged antibody to the captured protein allow detection on a MSD reader.
The EC50 is defined as the concentration at which a given compound achieves 50% decrease of the measured levels of S473 AKT phosphorylation. EC50 values are calculated using MDL Assay Explorer 3.0.1.8 fitting a sigmoidal curve with a variable slope.

Sequence of mTOR enzyme (mTOR(1360-2549)+GBL) (P42345 1360-2549): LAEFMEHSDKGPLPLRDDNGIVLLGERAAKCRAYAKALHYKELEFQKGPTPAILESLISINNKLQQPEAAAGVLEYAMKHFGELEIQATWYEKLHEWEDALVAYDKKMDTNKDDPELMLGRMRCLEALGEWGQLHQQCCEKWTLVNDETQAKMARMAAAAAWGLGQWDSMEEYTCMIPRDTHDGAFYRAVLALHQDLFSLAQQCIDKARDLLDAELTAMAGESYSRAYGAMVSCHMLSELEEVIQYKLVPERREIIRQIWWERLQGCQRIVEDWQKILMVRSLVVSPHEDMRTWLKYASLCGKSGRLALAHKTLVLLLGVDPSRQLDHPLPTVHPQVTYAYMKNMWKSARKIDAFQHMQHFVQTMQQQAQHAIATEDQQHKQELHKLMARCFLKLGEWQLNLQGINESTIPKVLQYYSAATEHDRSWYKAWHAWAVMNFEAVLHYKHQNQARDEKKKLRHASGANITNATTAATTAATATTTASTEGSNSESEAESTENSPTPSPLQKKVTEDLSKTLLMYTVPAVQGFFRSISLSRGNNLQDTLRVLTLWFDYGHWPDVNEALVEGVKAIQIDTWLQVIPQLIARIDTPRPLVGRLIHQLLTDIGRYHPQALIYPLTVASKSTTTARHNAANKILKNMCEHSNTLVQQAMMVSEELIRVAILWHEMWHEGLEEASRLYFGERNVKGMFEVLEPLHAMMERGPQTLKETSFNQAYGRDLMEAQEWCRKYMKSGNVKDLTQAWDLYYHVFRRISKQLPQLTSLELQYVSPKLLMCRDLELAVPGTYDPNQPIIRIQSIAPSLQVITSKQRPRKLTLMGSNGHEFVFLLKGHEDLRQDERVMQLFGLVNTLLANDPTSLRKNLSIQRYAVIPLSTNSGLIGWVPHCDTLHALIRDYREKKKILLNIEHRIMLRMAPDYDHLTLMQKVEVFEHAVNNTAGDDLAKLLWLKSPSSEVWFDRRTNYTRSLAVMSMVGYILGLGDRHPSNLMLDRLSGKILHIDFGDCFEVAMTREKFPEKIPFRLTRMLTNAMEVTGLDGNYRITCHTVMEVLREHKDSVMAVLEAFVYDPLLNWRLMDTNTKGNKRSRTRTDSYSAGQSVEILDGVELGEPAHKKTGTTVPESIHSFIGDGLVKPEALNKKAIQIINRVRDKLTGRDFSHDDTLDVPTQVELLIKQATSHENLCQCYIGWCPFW
Sequence of mTOR enzyme (mTOR(1360-2549)+GBL) (Q9BVC4 whole entry partner): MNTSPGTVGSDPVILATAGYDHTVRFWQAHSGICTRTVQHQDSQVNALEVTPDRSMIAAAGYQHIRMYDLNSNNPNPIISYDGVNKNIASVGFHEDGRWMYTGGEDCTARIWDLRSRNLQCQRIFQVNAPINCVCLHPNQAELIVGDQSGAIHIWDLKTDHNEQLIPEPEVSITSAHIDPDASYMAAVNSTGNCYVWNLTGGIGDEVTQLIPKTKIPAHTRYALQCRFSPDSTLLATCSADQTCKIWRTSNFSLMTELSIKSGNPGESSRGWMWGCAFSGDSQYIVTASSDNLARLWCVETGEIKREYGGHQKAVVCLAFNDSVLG

## CCNC(=O)Nc1ccc(-c2nc(N3CCOC[C@@H]3C)c3nc(C4(O)COC4)n(C)c3n2)cc1 [Compound 101, (S)-1-ethyl-3-(4-(8-(3-hydroxyoxetan-3-yl)-9-methyl-6-(3-methylmorpholino)-9H-purin-2-yl)phenyl)urea]
[1]
  Ki: 7 nM
PC3 cells
  IC50: 282 nM
[2]
  EC50: 30 nM

## CCNC(=O)Nc1ccc(-c2nc(N3CCOC[C@@H]3C)c3nc(C4CC4)n(C)c3n2)cc1 [Compound 102, (S)-1-(4-(8-cyclopropyl-9-methyl-6-(3-methylmorpholino)-9H-purin-2-yl)phenyl)-3-ethylurea]
[1]
  Ki: 8 nM
PC3 cells
  IC50: 207 nM
[2]
  EC50: 37 nM

## CCNC(=O)Nc1ccc(-c2nc(N3CCOC[C@@H]3C)c3nc(C4(O)CCOCC4)n(C)c3n2)cc1 [Compound 103, (S)-1-ethyl-3-(4-(8-(4-hydroxytetrahydro-2H-pyran-4-yl)-9-methyl-6-(3-methylmorpholino)-9H-purin-2-yl)phenyl)urea]
[1]
  Ki: 5 nM
PC3 cells
  IC50: 120 nM
[2]
  EC50: 29 nM

## CCNC(=O)Nc1ccc(-c2nc(N3CCOC[C@@H]3C)c3nc(C4(O)CCOCC4)n(CC)c3n2)cc1 [Compound 104, (S)-1-ethyl-3-(4-(9-ethyl-8-(4-hydroxytetrahydro-2H-pyran-4-yl)-6-(3-methylmorpholino)-9H-purin-2-yl)phenyl)urea]
[1]
  Ki: 4 nM
PC3 cells
  IC50: 115 nM
[2]
  EC50: 10 nM

## CCNC(=O)Nc1ccc(-c2nc(N3CCOC[C@@H]3C)c3nc(C4(O)CNC4)n(C)c3n2)cc1 [Compound 105, (S)-1-ethyl-3-(4-(8-(3-hydroxyazetidin-3-yl)-9-methyl-6-(3-methylmorpholino)-9H-purin-2-yl)phenyl)urea]
[1]
  Ki: 74 nM

## CCNC(=O)Nc1ccc(-c2nc(N3CCOC[C@@H]3C)c3nc(C4CC4)n(CC)c3n2)cc1 [Compound 106, (S)-1-(4-(8-cyclopropyl-9-ethyl-6-(3-methylmorpholino)-9H-purin-2-yl)phenyl)-3-ethylurea]
[1]
  Ki: 8 nM
PC3 cells
  IC50: 441 nM
[2]
  EC50: 15 nM

## CCNC(=O)Nc1ccc(-c2nc(N3CCOC[C@@H]3C)c3nc(-c4cncnc4)n(CC)c3n2)cc1 [Compound 107, (S)-1-ethyl-3-(4-(9-ethyl-6-(3-methylmorpholino)-8-(pyrimidin-5-yl)-9H-purin-2-yl)phenyl)urea]
[1]
  Ki: 3 nM
PC3 cells
  IC50: 112 nM
[2]
  EC50: 7 nM

## CCNC(=O)Nc1ccc(-c2nc(N3CCOC[C@@H]3C)c3nc(C4(F)COC4)n(C)c3n2)cc1 [Compound 108, (S)-1-ethyl-3-(4-(8-(3-fluorooxetan-3-yl)-9-methyl-6-(3-methylmorpholino)-9H-purin-2-yl)phenyl)urea]
[1]
  Ki: 3 nM
PC3 cells
  IC50: 232 nM
[2]
  EC50: 9 nM

## CCNC(=O)Nc1ccc(-c2nc(N3CCOC[C@@H]3C)c3nc(C4(F)COC4)n(CC)c3n2)cc1 [Compound 109, (S)-1-ethyl-3-(4-(8-(3-fluorooxetan-3-yl)-9-ethyl-6-(3-methylmorpholino)-9H-purin-2-yl)phenyl)urea]
[1]
  Ki: 3 nM
PC3 cells
  IC50: 218 nM
[2]
  EC50: 8 nM

## CCNC(=O)Nc1ccc(-c2nc(N3CCOC[C@@H]3C)c3nc(C4(F)CCOCC4)n(CC)c3n2)cc1 [Compound 110, (S)-1-ethyl-3-(4-(9-ethyl-8-(4-fluorotetrahydro-2H-pyran-4-yl)-6-(3-methylmorpholino)-9H-purin-2-yl)phenyl)urea]
[1]
  Ki: 5 nM
PC3 cells
  IC50: 163 nM
[2]
  EC50: 5 nM

## CCNC(=O)Nc1ccc(-c2nc(N3CCOC[C@@H]3C)c3nc(C4(O)COC4)n(CC)c3n2)cc1 [Compound 111, (S)-1-ethyl-3-(4-(9-ethyl-8-(3-hydroxyoxetan-3-yl)-6-(3-methylmorpholino)-9H-purin-2-yl)phenyl)urea]
[1]
  Ki: 4 nM
PC3 cells
  IC50: 269 nM
[2]
  EC50: 4 nM

## CCn1c(C2CC2)nc2c(N3CCOC[C@@H]3C)nc(-c3ccc(Nc4cccc(=O)[nH]4)cc3)nc21 [Compound 112, (S)-6-(4-(8-cyclopropyl-9-ethyl-6-(3-methylmorpholino)-9H-purin-2-yl)phenylamino)pyridin-2(1H)-one]
[1]
  Ki: 6 nM
PC3 cells
  IC50: 853 nM
[2]
  EC50: 6 nM

## CCn1c(C2CC2)nc2c(N3CCOC[C@@H]3C)nc(-c3ccc(NC(=O)NC4COC4)cc3)nc21 [Compound 113, (S)-1-(4-(8-cyclopropyl-9-ethyl-6-(3-methylmorpholino)-9H-purin-2-yl)phenyl)-3-(oxetan-3-yl)urea]
[1]
  Ki: 8 nM
PC3 cells
  IC50: 1700 nM
[2]
  EC50: 8 nM
